Test results published in ChEMBL document CHEMBL3885881, “DrugMatrix”.

Species on record: Rattus norvegicus
Test: DrugMatrix - Regimen: Daily Repeat
Format: toxicity, organism-based, Sprague-Dawley
Design: regimen Daily Repeat, gender Male, age 6-8 weeks
Conditions: in vivo, po, route oral GAVAGE, vehicle 100 % WATER; for ABSOLUTE BASOPHIL / ABSOLUTE EOSINOPHIL / ABSOLUTE LYMPHOCYTE / ABSOLUTE MONOCYTE / ABSOLUTE SEGMENTED NEUTROPHIL / BASOPHIL / EOSINOPHIL / ERYTHROCYTE COUNT / HEMATOCRIT / HEMOGLOBIN / LEUKOCYTE COUNT / LYMPHOCYTE / MEAN CORPUSCULAR HEMOGLOBIN / MEAN CORPUSCULAR HEMOGLOBIN CONCENTRATION / MEAN CORPUSCULAR VOLUME / MONOCYTE / NEUTROPHIL / NUCLEATED RED BLOOD CELLS / PLATELET COUNT: tissue Blood; for ALANINE AMINOTRANSFERASE / ALBUMIN / ALKALINE PHOSPHATASE / ASPARTATE AMINOTRANSFERASE / BLOOD UREA NITROGEN / CARBON DIOXIDE / CHLORIDE / CHOLESTEROL / CREATINE PHOSPHOKINASE / CREATININE / GLUCOSE / LACTATE DEHYDROGENASE / LIPASE / PHOSPHORUS / POTASSIUM / SODIUM / TOTAL BILIRUBIN / TOTAL PROTEIN / URIC ACID: tissue Plasma
[1] = 3 mg/kg, 120 h, dose level Low, time 5 day
[2] = 47 mg/kg, 72 h, dose level High, time 3 day
[3] = 47 mg/kg, 120 h, dose level High, time 5 day

CN(C)CC[C@@H](c1ccc(Cl)cc1)c1ccccn1 [DEXCHLORPHENIRAMINE] was tested, and the “ABSOLUTE BASOPHIL” value [1] was 0 CELLS/uL, the “ABSOLUTE EOSINOPHIL” value [1] was 0 CELLS/uL and the “ABSOLUTE LYMPHOCYTE” value [1] was 15600.33 CELLS/uL. The “ABSOLUTE MONOCYTE” value [1] was 181.67 CELLS/uL, the “ABSOLUTE SEGMENTED NEUTROPHIL” value [1] was 884.67 CELLS/uL and the BASOPHIL [1] was 0%. For the same compound, the EOSINOPHIL [1] was 0%, the “ERYTHROCYTE COUNT” value [1] was 5.61 x10E6/uL and the HEMATOCRIT [1] was 35.43%. The HEMOGLOBIN [1] was 14.3 G/DL, the “LEUKOCYTE COUNT” value [1] was 16.67 x10E3/uL and the LYMPHOCYTE [1] was 93.67%. The “MEAN CORPUSCULAR HEMOGLOBIN” value [1] was 25.5 pg, the “MEAN CORPUSCULAR HEMOGLOBIN CONCENTRATION” value [1] was 40.33 G/DL and the “MEAN CORPUSCULAR VOLUME” value [1] was 63.17 fL. For the same compound, the MONOCYTE [1] was 1%, the NEUTROPHIL [1] was 5.33% and the “NUCLEATED RED BLOOD CELLS” value [1] was 0.33 /100WBC. For the same compound, the “PLATELET COUNT” value [1] was 1254.33 x10E3/uL, the “ALANINE AMINOTRANSFERASE” value [1] was 55.33 u/L and the ALBUMIN [1] was 4.17 G/DL. For the same compound, the “ALKALINE PHOSPHATASE” value [1] was 407 u/L, the “ASPARTATE AMINOTRANSFERASE” value [1] was 86.33 u/L and the “BLOOD UREA NITROGEN” value [1] was 15 mg/dL. The “CARBON DIOXIDE” value [1] was 32 mmol/L, the CHLORIDE [1] was 102 MEQ/L and the CHOLESTEROL [1] was 63.33 mg/dL. For the same compound, the “CREATINE PHOSPHOKINASE” value [1] was 451.67 u/L, the CREATININE [1] was 0.18 mg/dL and the GLUCOSE [1] was 121.33 mg/dL. The “LACTATE DEHYDROGENASE” value [1] was 251 u/L, the LIPASE [1] was 10.33 u/L and the PHOSPHORUS [1] was 12.1 mg/dL. For the same compound, the POTASSIUM [1] was 6.1 MEQ/L, the SODIUM [1] was 144.9 MEQ/L and the “TOTAL BILIRUBIN” value [1] was 0.23 mg/dL. For the same compound, the “TOTAL PROTEIN” value [1] was 6.07 G/DL, the “URIC ACID” value [1] was 1.37 mg/dL and the “ABSOLUTE BASOPHIL” value [2] was 0 CELLS/uL. For the same compound, the “ABSOLUTE EOSINOPHIL” value [2] was 62.67 CELLS/uL, the “ABSOLUTE LYMPHOCYTE” value [2] was 12240 CELLS/uL and the “ABSOLUTE MONOCYTE” value [2] was 133 CELLS/uL. For the same compound, the “ABSOLUTE SEGMENTED NEUTROPHIL” value [2] was 864.33 CELLS/uL, the BASOPHIL [2] was 0% and the EOSINOPHIL [2] was 0.67%. The “ERYTHROCYTE COUNT” value [2] was 5.93 x10E6/uL, the HEMATOCRIT [2] was 38.13% and the HEMOGLOBIN [2] was 14.77 G/DL. The “LEUKOCYTE COUNT” value [2] was 13.3 x10E3/uL, the LYMPHOCYTE [2] was 91.33% and the “MEAN CORPUSCULAR HEMOGLOBIN” value [2] was 24.9 pg. For the same compound, the “MEAN CORPUSCULAR HEMOGLOBIN CONCENTRATION” value [2] was 38.73 G/DL, the “MEAN CORPUSCULAR VOLUME” value [2] was 64.3 fL and the MONOCYTE [2] was 1%. For the same compound, the NEUTROPHIL [2] was 7%, the “NUCLEATED RED BLOOD CELLS” value [2] was 0 /100WBC and the “PLATELET COUNT” value [2] was 1535.33 x10E3/uL. For the same compound, the “ALANINE AMINOTRANSFERASE” value [2] was 44.33 u/L, the ALBUMIN [2] was 4.03 G/DL and the “ALKALINE PHOSPHATASE” value [2] was 352 u/L. For the same compound, the “ASPARTATE AMINOTRANSFERASE” value [2] was 75 u/L, the “BLOOD UREA NITROGEN” value [2] was 14.67 mg/dL and the “CARBON DIOXIDE” value [2] was 33.67 mmol/L. For the same compound, the CHLORIDE [2] was 102 MEQ/L, the CHOLESTEROL [2] was 65 mg/dL and the “CREATINE PHOSPHOKINASE” value [2] was 246.67 u/L. For the same compound, the CREATININE [2] was 0.17 mg/dL, the GLUCOSE [2] was 153.67 mg/dL and the “LACTATE DEHYDROGENASE” value [2] was 134 u/L. It also gave an LIPASE [2] of 10.67 u/L, a PHOSPHORUS [2] of 12.47 mg/dL and a POTASSIUM [2] of 6.39 MEQ/L. For the same compound, the SODIUM [2] was 145.23 MEQ/L, the “TOTAL BILIRUBIN” value [2] was 0.17 mg/dL and the “TOTAL PROTEIN” value [2] was 5.97 G/DL. The “URIC ACID” value [2] was 1.93 mg/dL, the “ABSOLUTE BASOPHIL” value [3] was 0 CELLS/uL and the “ABSOLUTE EOSINOPHIL” value [3] was 0 CELLS/uL. For the same compound, the “ABSOLUTE LYMPHOCYTE” value [3] was 14891.67 CELLS/uL, the “ABSOLUTE MONOCYTE” value [3] was 0 CELLS/uL and the “ABSOLUTE SEGMENTED NEUTROPHIL” value [3] was 875 CELLS/uL. For the same compound, the BASOPHIL [3] was 0%, the EOSINOPHIL [3] was 0% and the “ERYTHROCYTE COUNT” value [3] was 6.11 x10E6/uL. The HEMATOCRIT [3] was 38.9%, the HEMOGLOBIN [3] was 14.93 G/DL and the “LEUKOCYTE COUNT” value [3] was 15.77 x10E3/uL. For the same compound, the LYMPHOCYTE [3] was 94.33%, the “MEAN CORPUSCULAR HEMOGLOBIN” value [3] was 24.47 pg and the “MEAN CORPUSCULAR HEMOGLOBIN CONCENTRATION” value [3] was 38.37 G/DL. For the same compound, the “MEAN CORPUSCULAR VOLUME” value [3] was 63.73 fL, the MONOCYTE [3] was 0% and the NEUTROPHIL [3] was 5.67%. For the same compound, the “NUCLEATED RED BLOOD CELLS” value [3] was 0 /100WBC, the “PLATELET COUNT” value [3] was 1215 x10E3/uL and the “ALANINE AMINOTRANSFERASE” value [3] was 35.67 u/L. The ALBUMIN [3] was 4.17 G/DL, the “ALKALINE PHOSPHATASE” value [3] was 323 u/L and the “ASPARTATE AMINOTRANSFERASE” value [3] was 76.67 u/L. For the same compound, the “BLOOD UREA NITROGEN” value [3] was 14.67 mg/dL, the “CARBON DIOXIDE” value [3] was 30.67 mmol/L and the CHLORIDE [3] was 101.33 MEQ/L. The CHOLESTEROL [3] was 61.67 mg/dL, the “CREATINE PHOSPHOKINASE” value [3] was 322 u/L and the CREATININE [3] was 0.13 mg/dL. The GLUCOSE [3] was 169.67 mg/dL, the “LACTATE DEHYDROGENASE” value [3] was 202.67 u/L and the LIPASE [3] was 11 u/L. It also gave a PHOSPHORUS [3] of 12.57 mg/dL, a POTASSIUM [3] of 5.79 MEQ/L and an SODIUM [3] of 144.7 MEQ/L. For the same compound, the “TOTAL BILIRUBIN” value [3] was 0.2 mg/dL, the “TOTAL PROTEIN” value [3] was 6.33 G/DL and the “URIC ACID” value [3] was 1.57 mg/dL.
